Source: patent US10426815B2, “Prevention and treatment of itch with an MRGPR antagonist” (THE GENERAL HOSPITAL CORPORATION, priority 2015, dated 2019)
Entries after “also recorded” stand apart in the source; their conditions may differ.

Experiments:
MrgB2 (mouse MrgprB2) = target: T1, MrgB2 (mouse MrgprB2) (Mus musculus, UniProt Q3KNA1); assay: Calcium imaging of cells transfected with the GPCR (Table 1); type: cell-based; details: for inhibition of SP-induced activation of mouse MrgprB2: FIG. 11: SP 50 μM, NK1 antagonists 50 μM
T1 construct: expressed in transfected cells; host or cells: HeLa cells, pcDNA3.1(-)
T1 sequence (Q3KNA1 1-338): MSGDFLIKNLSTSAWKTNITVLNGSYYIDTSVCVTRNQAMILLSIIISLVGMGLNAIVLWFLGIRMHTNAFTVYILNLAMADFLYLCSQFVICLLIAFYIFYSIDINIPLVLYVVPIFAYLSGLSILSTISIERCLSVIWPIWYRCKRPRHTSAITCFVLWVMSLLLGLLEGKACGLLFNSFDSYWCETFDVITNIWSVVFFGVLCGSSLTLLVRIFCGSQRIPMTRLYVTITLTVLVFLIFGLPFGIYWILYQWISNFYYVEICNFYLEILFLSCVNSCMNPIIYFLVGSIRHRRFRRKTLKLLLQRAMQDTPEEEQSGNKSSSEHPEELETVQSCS
Procedure: (§1) human MRGPRX2 was isolated by PCR from human genomic DNA using the forward and reverse primers, […] (SEQ. ID. NO: 3) and […] (SEQ. ID. NO: 4), and cloned into pcDNA3.1(−). The mouse MrgprA1 cDNA expression clone was purchased from ORIGENE Technologies. The mouse MrgprB2 coding sequences were PCR-amplified from mouse genomic DNA using the primer pair, […] (SEQ. ID. NO: 5) and […] (SEQ. ID. NO: 6), and cloned into pcDNA3.1 (−).
(§2) 10 μg of expression vector (human MRGPRX2, mouse MrgprA1 or NK1) and 10 μl of LIPOFECTAMINE 2000 transfection reagent were diluted into 0.5 ml of DMEM and separately left at room temperature (RT) for 5 min. They were then mixed and incubated at RT for 20 minutes prior to being added to HeLa cells. HeLa cells were grown to confluence, trypsinized and 1×10^6 cells were pelleted in a 15 ml tube by centrifugation at 1000 rpm for 5 minutes. The DMEM-LIPOFECTAMINE 2000-DNA mixture (1 ml) was then added to the cell pellet, suspended and incubated at RT for 5 minutes. 2 ml of complete DMEM with 10% FBS without antibiotics were added to the tube, mixed by inverting the tube, plated into a 96-well glass bottom plate at 50,000 cells/well, and placed in a 37° C. CO2 incubator for 3 hours. HeLa cells transfected with salmon sperm DNA were plated as a control. The medium was changed after 3 hours and left in the incubator. 24 hours after transfection, the medium in the wells was removed and 100 μl of complete DMEM containing 2 μM of FURA-2 were added to each well and left at room temperature in the dark for 1 hr.
(§3) Calcium imaging was performed immediately after loading cells with Fura-2, using a ZEISS Axiovert 200M microscope platform equipped with a flipping filter wheel for ratiometric imaging. Axiovision software, version 4.6 was used for calcium image analysis of the cells excited at 340 nm and 380 nm. Agonists were added at 15 seconds after the start of the excitation procedure. Antagonists were added five minutes before imaging with the agonists. Images were taken every 5 seconds, including at zero time, during a 90 second period or longer if required. The software later analyzed all images taken during each excitation period. Ratiometric changes were measured in 10-20 cells in each individual experiment. An average of the fluorescence of the cells in each image was calculated and plotted against time in seconds.

MrgA1 (mouse MrgprA1) = target: T2, MrgA1 (mouse MrgprA1) (Mus musculus, UniProt Q91WW5); assay: as above; type: cell-based; details: for inhibition of SP-induced activation of mouse MrgprA1: FIG. 6a: SP 5 μM, inhibitors 10 μM, FK888 10 μM; for activation of mouse MrgprA1 by the substance (in words): NPFF 50 μM, SP at nanomolar concentrations
T2 construct: host or cells: HeLa cells
T2 sequence (Q91WW5 1-304): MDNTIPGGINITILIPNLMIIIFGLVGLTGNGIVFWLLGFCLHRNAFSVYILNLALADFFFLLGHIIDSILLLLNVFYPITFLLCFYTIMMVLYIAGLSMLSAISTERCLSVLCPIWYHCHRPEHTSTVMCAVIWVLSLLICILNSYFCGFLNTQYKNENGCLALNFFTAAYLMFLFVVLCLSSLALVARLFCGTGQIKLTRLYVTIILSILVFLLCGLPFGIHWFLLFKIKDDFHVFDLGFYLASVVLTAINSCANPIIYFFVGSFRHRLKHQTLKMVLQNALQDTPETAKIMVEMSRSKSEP
Procedure: as §1
as §2, with “hr. Following loading with FURA-2, the medium was removed, washed with PBS and replaced with 90 μl of HEPES-buffered saline (20 mM HEPES, 115 mM NaCl, 5.4 mM KCl, 2 mM CaCl2, 0.8 mM MgCl2, 13.8 mM glucose, pH 7.4).” for “hr.”
as §3
HeLa cells transfected with human MRGPRX2, mouse MrgprA1 and NK1 cDNAs were subjected to ratiometric imaging as described above with SP at concentrations from 0.1 nM-50 μM. Each of the concentration dependent readings was performed in triplicate. Maximum intensities at each of the dilutions were calculated and plotted against concentration using GraphPad Prism software. Error bars represent SEM.
The top row lists ligands that have been tested versus the various receptors, both in the absence and presence of QWF.

Compound | inhibition of SP-induced activation of mouse MrgprB2 (MrgB2 (mouse MrgprB2)) | inhibition of SP-induced activation of mouse MrgprA1 (MrgA1 (mouse MrgprA1)) | activation of mouse MrgprB2 by the substance (in words) (MrgB2 (mouse MrgprB2)) | activation of mouse MrgprA1 by the substance (in words) (MrgA1 (mouse MrgprA1)) | further results
Boc-Gln-D-Trp(Formyl)-Phe benzyl ester trifluoroacetate [QWF] | inhibits; also recorded: antagonized; also recorded: antagonist | excellent inhibitor; also recorded: potent antagonist; also recorded: inhibits; also recorded: blocks | – | – | inhibition of mMrgprB2 activation by compound 48/80 (MrgB2 (mouse MrgprB2)): inhibits; inhibition of mouse MrgprB2 activation by atracurium and ciprofloxacin (MrgB2 (mouse MrgprB2); FIG. 8a): antagonized; also recorded: inhibits; inhibition of mMrgprB2 activation by SLIGRL (MrgB2 (mouse MrgprB2); SLIGRL 10 μM, QWF 10 μM (FIG. 12)): inhibits; inhibition of mMrgprA1 activation by compound 48/80 (MrgA1 (mouse MrgprA1)): inhibits
SLIGRL: tethered hexapeptide ligand of mouse PAR2 (SEQ ID NO: 7) | – | – | activates | activates | –
FC(F)(F)c1cc(CO[C@H]2CCCN[C@H]2c2ccccc2)cc(C(F)(F)F)c1 [L-733060] | antagonized; also recorded: antagonists | did not impact | – | – | inhibition of SP-induced activation of mouse MrgprA1 (MrgA1 (mouse MrgprA1); listed as L733060): not

More lines, main results first:

inhibition of SP-induced activation of mouse MrgprB2 (MrgB2 (mouse MrgprB2)) | inhibition of SP-induced activation of mouse MrgprA1 (MrgA1 (mouse MrgprA1)) | activation of mouse MrgprB2 by the substance (in words) (MrgB2 (mouse MrgprB2)) | Compound | activation of mouse MrgprA1 by the substance (in words) (MrgA1 (mouse MrgprA1)) | further results
antagonized; also recorded: antagonists | did not impact and not | – | C[C@@H](O[C@H]1OCCN(Cc2n[nH]c(=O)[nH]2)[C@H]1c1ccc(F)cc1)c1cc(C(F)(F)F)cc(C(F)(F)F)c1 [aprepitant] | – | –
– | – | activates | SP: inflammatory undecapeptide neuropeptide of the tachykinin family, synthesized by GenScript | activates; also recorded: specifically activated | –
